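Five concentrations, 48 hours, 96-well plates. Here, GI50 denotes the concentration required for 50% inhibition of growth. TGI: total growth inhibition.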
tested on: SF-268 CNS; experiment: NCI-60 cell line screen, 48 h

| Compound | GI50 [µM] | TGI [µM] |
| --- | --- | --- |
| Nc1nc(Nc2ccccc2)c2ncn(Cc3cc4c(cc3Br)OCO4)c2n1 | 0.128 | 45.3 |
| CCOC(=O)N1CCN(C(=O)c2ccc(C(F)(F)F)nc2Nc2cc(Cl)ccc2C)CC1 | 74.8 | > 100 |
| Cc1ccc(Nc2nc(N)c(C(=O)c3ccc(C#N)cc3)s2)cc1 | 2.59 | > 95.9 |
| O=C1c2ccn(CCCCNC(CO)(CO)CO)c2C(=O)c2c1c(O)c1ccccc1c2O | 3.41 | 18.1 |
| COc1ccc(-c2cc(-c3cccn3C)c(C#N)c(N)n2)cc1OC | 82.4 | > 100 |
| CN1CCc2c(Sc3ccc(C(=O)NO)cc3)c3ccccc3n2C1 | 1.85 | 4.31 |
| COc1ccc(CNc2c3ccccc3nc3ccccc23)cc1OC | 3.21 | 13 |
| CN(C)c1ccc2nc3ccc(=O)cc-3sc2c1 | 5.16 | > 100 |
| c1ccc2c3ccn4cc5c(cc4c-3nc2c1)CCCC5 |  | 14.4 |
| OCCCCC#Cc1ccccc1C#Cc1cccc(O)c1 | 18.5 | 42.6 |
| O=C(N/N=C\c1cc(Br)ccc1O)c1ccncc1 | 1.4 | > 100 |
| COc1ccccc1/C=C/c1cnccn1 |  | > 10 |
| CCN(CC)CC(C)(C)C(=O)/C=C/c1ccc(Cl)c(Cl)c1 | 1.56 | 3.22 |
| COc1cc2c(cc1OC)C13CCN4CC5=CCOC6CC(=O)N2C1C6C5CC43O (centres undefined) |  | > 100 |
| CN(C)Cc1c[nH]c2c1C(=O)c1c(c(O)c3ccccc3c1O)C2=O | 8.24 | 23.9 |

tested on: SK-MEL-28 melanoma; experiment: NCI-60 cell line screen, 48 h

| Compound | TGI [µM] | GI50 [µM] |
| --- | --- | --- |
| N#CC1(C2SCCS2=O)C2=C(C(=O)c3ccccc3C2=O)N2CCCC21 (centres undefined) | 7.8 |  |
| Cc1n(Cc2ccc3ccccc3c2)cc[n+]1Cc1ccc2ccccc2c1 | 3.05 | 1.02 |
| O=C(O)Cc1c(O)ccc2ccccc12 | > 100 |  |
| O=C1/C(=C\c2cccn2Cc2ccccc2)c2ccccc2N1c1c(Cl)cccc1Cl | > 100 | > 100 |
| Cc1sc2nc(NCCc3c[nH]c4ccc(Cl)cc34)[nH]c(=O)c2c1C | 15.7 | 4.08 |
| CSC1(CC(=O)N(C)C)C(=O)Nc2ccccc21 (centres undefined) | > 100 |  |
| O=C(O)c1c(-c2nccc3ccccc23)[nH]c(-c2ccccc2)c1S(=O)(=O)O | > 100 |  |
| COc1ccc(/C=c2/sc3n(c2=O)C(c2ccc(OC)c(OC)c2)C2=C(N=3)c3cc(F)ccc3OC2)cc1 (centres undefined) | > 96.6 | 51.5 |
| O=C(O)c1cc(O)c2c(c1)C(C1c3cc(C(=O)O)cc(O)c3C(=O)c3c(OC4OC(CO)C(O)C(O)C4O)cccc31)c1cccc(OC3OC(CO)C(O)C(O)C3O)c1C2=O (centres undefined) | > 100 | > 100 |
| O=C(CN(C1CCCCC1)C1CCCCC1)Nc1ccc(S(=O)(=O)c2ccc(NC(=O)CN(C3CCCCC3)C3CCCCC3)cc2)cc1 | 2.82 | 1.21 |
| Cc1c[n+](Cc2ccc3ccccc3c2)cn1Cc1ccc2ccccc2c1 | 3.7 | 1.8 |
| Nc1nc(Br)nc2c1ncn2C1CC(O)C(CO)O1 (centres undefined) | > 100 | > 100 |
| Nc1nc(Nc2ccccc2)c2ncn(Cc3cc4c(cc3Br)OCO4)c2n1 | 36.2 | 0.524 |
| CCOC(=O)N1CCN(C(=O)c2ccc(C(F)(F)F)nc2Nc2cc(Cl)ccc2C)CC1 | 96 | 26.1 |
| Cc1ccc(Nc2nc(N)c(C(=O)c3ccc(C#N)cc3)s2)cc1 | > 100 | 18.9 |
| O=C1c2ccn(CCCCNC(CO)(CO)CO)c2C(=O)c2c1c(O)c1ccccc1c2O | > 43.6 | 6.44 |
| COc1ccc(-c2cc(-c3cccn3C)c(C#N)c(N)n2)cc1OC | > 100 | > 100 |
| CN1CCc2c(Sc3ccc(C(=O)NO)cc3)c3ccccc3n2C1 | 3.98 | 1.58 |

Source: PubChem BioAssay (NCI)
